Measurements published in article PMC4334727 (Circulation, 2014).

Experiments:
DUSP3 = DUSP3 (Homo sapiens, UniProt P51452); experiment: DUSP3 phosphatase inhibition assay; format: biochemical
HePTP = biological target: T1, HePTP (Homo sapiens, UniProt P35236); experiment: PTP selectivity profiling; format: biochemical
T1 sequence (P35236 1-360): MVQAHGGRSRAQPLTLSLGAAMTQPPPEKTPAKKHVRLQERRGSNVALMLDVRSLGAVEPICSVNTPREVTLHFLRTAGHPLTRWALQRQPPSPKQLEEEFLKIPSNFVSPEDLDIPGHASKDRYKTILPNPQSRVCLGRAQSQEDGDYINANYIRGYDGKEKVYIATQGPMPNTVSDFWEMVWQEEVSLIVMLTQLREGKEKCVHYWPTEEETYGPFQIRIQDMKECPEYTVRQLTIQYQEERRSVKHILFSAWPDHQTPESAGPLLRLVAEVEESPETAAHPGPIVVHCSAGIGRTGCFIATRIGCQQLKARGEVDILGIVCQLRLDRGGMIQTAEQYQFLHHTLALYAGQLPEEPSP

PTP-SL = experiment: PTP selectivity profiling; format: biochemical
TCPTP = biological target: T2, TCPTP (Homo sapiens, UniProt P17706); experiment: PTP selectivity profiling; format: biochemical
T2 sequence (P17706 1-415): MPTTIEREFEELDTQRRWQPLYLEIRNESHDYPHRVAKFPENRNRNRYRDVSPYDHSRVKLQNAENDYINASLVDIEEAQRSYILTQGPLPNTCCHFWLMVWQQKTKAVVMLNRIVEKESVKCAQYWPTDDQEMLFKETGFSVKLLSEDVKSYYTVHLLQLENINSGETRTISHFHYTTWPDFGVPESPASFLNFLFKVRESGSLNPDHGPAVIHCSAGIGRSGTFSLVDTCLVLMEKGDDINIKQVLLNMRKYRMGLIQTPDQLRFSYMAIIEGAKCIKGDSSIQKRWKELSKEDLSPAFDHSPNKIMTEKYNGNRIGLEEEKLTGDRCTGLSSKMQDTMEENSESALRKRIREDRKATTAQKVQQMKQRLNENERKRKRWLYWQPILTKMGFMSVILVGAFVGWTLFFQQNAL

human platelets = format: cell-based
STEP = biological target: T3, STEP (Homo sapiens, UniProt P54829); experiment: PTP selectivity profiling; format: biochemical
T3 sequence (P54829 1-565): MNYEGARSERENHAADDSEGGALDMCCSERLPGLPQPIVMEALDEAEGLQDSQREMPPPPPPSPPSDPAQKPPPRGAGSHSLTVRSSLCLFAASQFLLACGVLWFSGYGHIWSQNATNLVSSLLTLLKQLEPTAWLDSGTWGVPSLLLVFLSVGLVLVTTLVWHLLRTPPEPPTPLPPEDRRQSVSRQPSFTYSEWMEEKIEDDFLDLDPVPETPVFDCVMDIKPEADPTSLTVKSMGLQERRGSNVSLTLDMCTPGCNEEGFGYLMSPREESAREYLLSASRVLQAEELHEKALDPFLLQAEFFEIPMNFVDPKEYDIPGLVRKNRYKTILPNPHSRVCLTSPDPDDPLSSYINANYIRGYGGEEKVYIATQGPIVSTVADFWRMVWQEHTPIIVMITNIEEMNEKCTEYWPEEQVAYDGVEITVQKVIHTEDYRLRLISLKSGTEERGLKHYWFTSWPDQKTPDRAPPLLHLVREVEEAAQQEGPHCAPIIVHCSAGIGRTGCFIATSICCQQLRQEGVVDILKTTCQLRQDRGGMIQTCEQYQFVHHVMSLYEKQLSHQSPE

DUSP22 = biological target: T4, DUSP22 (Homo sapiens, UniProt Q9NRW4); experiment: PTP selectivity profiling; format: biochemical
T4 sequence (Q9NRW4 1-184): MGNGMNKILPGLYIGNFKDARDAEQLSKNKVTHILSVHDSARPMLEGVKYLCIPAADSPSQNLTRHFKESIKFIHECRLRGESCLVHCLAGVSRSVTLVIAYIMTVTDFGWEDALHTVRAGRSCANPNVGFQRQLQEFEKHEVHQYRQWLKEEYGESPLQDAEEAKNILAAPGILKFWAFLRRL

CD45 = biological target: T5, CD45 (Homo sapiens, UniProt P08575); experiment: PTP selectivity profiling; format: biochemical
T5 sequence (P08575 26-1306): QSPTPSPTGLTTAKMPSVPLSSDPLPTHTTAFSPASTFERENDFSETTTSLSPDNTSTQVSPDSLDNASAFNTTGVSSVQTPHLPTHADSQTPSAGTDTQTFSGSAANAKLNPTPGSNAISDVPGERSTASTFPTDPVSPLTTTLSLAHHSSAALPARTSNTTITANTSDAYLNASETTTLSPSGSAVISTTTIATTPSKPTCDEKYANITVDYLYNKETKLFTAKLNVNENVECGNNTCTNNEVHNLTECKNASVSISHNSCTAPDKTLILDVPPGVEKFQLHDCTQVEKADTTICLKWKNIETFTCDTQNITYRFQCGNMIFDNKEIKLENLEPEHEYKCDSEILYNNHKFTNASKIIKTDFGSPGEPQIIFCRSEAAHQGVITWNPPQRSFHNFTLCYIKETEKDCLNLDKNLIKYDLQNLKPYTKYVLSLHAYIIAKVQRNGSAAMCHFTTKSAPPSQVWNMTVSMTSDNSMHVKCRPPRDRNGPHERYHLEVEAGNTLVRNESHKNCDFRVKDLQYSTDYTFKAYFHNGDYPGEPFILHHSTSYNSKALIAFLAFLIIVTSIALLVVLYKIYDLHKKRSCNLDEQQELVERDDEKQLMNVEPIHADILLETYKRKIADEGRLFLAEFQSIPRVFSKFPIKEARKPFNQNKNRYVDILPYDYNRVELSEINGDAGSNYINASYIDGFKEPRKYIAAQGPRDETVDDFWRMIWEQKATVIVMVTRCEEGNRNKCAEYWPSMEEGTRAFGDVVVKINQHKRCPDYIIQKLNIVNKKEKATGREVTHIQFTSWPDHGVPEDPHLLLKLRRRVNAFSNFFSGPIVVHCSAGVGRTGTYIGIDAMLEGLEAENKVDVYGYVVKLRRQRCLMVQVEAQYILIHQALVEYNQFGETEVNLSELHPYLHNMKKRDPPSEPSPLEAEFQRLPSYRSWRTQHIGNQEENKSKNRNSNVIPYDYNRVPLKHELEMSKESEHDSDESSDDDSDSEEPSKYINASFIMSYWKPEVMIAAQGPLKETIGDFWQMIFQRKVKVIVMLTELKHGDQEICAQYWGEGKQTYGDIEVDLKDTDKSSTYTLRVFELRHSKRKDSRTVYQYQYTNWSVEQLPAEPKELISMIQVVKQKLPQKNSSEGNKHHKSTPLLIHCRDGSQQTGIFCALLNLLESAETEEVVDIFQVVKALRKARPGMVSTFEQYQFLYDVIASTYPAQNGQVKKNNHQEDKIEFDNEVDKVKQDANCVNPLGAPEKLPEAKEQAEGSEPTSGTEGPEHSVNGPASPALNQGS

DUSP6 = biological target: T6, DUSP6 (Homo sapiens, UniProt Q16828); experiment: PTP selectivity profiling; format: biochemical
T6 sequence (Q16828 1-381): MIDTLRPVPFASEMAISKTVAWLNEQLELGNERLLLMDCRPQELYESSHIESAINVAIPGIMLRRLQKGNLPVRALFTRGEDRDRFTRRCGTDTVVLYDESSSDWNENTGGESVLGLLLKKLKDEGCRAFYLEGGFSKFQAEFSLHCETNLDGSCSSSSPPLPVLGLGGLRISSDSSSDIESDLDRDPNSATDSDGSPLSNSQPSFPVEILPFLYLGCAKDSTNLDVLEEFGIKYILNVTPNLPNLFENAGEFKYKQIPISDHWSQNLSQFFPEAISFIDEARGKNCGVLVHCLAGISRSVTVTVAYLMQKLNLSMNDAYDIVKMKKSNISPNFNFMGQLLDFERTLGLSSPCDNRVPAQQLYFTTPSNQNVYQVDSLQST

LYP = biological target: T7, LYP (Homo sapiens, UniProt Q9Y2R2); experiment: PTP selectivity profiling; format: biochemical
T7 sequence (Q9Y2R2 1-807): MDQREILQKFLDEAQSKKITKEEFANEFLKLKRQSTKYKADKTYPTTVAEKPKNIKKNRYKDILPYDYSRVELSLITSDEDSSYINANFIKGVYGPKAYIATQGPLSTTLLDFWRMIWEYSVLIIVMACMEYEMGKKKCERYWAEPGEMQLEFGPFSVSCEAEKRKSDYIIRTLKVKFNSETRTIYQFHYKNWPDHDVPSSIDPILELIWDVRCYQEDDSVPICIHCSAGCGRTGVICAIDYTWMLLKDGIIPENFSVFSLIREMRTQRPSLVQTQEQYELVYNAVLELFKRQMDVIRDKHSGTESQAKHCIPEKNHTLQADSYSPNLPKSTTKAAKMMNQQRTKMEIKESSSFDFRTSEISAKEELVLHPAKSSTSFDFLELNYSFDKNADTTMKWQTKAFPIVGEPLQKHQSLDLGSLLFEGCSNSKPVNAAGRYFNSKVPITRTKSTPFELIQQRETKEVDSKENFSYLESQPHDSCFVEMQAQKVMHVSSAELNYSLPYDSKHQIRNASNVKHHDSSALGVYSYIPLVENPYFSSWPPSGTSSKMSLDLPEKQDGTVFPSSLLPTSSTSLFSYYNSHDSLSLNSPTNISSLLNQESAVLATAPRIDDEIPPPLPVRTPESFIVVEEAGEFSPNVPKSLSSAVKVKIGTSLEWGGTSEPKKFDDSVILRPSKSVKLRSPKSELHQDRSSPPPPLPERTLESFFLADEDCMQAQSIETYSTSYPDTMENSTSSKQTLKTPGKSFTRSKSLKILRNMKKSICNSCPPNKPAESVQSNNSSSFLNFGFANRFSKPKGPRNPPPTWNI

PTP1B = biological target: T8, PTP1B (Homo sapiens, UniProt P18031); experiment: PTP selectivity profiling; format: biochemical
T8 sequence (P18031 1-435): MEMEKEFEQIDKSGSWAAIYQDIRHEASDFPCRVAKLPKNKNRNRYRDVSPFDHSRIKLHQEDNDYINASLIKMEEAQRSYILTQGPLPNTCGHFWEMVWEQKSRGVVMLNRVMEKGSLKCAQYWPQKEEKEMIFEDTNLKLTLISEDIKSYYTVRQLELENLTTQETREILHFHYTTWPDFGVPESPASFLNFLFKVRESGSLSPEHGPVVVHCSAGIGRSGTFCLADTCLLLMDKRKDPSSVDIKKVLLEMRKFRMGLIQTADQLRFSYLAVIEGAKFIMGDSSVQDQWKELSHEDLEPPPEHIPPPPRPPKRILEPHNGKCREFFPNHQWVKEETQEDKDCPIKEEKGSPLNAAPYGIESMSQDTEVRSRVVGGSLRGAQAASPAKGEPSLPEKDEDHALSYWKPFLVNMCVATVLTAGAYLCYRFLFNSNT

[1] = tested on: DUSP3-deficient platelets; experiment: Platelet aggregation in washed platelets from Dusp3-KO mice; settings: Dusp3-KO mouse washed platelets, 3.7 μM, pre-incubated 30 min
LAR = LAR (Homo sapiens, UniProt P10586); experiment: PTP selectivity profiling; format: biochemical
[2] = DUSP3, HTS hits, text (Supplemental Table S2)

DUSP3, sequence (P51452 whole entry): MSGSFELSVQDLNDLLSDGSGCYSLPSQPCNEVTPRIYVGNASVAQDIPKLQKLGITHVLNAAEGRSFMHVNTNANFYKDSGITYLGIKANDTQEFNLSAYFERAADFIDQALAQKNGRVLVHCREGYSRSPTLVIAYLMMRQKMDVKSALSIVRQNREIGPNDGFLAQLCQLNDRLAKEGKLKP
LAR, sequence (P10586 30-1907, species assumed): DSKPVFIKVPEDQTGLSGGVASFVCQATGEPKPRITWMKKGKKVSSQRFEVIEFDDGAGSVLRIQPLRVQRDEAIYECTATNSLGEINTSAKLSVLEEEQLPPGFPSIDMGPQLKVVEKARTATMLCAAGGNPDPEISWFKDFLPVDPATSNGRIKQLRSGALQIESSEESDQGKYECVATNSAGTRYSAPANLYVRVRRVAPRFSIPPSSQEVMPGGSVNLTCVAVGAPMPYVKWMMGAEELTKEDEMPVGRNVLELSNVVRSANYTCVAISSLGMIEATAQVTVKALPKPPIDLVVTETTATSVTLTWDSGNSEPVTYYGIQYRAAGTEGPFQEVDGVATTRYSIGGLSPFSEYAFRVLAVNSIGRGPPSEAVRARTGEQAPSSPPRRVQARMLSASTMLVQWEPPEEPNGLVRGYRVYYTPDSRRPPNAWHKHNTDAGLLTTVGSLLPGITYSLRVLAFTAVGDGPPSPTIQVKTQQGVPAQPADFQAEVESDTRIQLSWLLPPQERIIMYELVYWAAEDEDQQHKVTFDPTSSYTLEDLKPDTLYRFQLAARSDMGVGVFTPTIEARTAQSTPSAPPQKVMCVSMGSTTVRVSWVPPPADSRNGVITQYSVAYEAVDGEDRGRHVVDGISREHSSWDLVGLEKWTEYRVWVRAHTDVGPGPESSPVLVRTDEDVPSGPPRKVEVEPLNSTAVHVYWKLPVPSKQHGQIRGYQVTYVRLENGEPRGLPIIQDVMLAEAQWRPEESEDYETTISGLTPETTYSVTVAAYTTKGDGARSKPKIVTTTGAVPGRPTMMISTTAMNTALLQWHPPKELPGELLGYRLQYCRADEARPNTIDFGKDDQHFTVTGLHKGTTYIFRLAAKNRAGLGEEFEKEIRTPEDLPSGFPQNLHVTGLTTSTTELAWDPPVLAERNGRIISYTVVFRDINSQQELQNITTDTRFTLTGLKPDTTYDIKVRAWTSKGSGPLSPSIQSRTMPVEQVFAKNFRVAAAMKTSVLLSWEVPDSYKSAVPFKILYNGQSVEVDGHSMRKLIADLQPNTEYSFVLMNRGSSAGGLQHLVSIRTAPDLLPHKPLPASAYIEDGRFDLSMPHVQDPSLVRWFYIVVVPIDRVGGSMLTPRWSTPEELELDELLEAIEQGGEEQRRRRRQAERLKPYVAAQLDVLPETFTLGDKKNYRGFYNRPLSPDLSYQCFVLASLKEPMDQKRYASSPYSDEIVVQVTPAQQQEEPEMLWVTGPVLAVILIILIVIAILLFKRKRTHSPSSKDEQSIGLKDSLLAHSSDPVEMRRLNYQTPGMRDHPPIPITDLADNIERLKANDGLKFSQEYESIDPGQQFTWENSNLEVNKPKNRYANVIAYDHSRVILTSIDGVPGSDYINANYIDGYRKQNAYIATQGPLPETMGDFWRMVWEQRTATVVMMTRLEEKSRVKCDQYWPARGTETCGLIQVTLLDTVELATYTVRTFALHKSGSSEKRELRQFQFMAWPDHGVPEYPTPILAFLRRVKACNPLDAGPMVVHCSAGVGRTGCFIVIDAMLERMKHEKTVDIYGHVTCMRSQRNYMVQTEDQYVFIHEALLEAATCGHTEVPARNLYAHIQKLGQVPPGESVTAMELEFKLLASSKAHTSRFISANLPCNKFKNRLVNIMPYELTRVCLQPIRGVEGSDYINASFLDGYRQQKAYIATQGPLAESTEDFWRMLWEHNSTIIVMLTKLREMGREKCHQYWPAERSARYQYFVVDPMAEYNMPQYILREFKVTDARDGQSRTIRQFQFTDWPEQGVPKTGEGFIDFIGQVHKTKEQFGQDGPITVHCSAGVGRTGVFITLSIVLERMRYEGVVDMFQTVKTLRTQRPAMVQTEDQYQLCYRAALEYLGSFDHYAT

SMILES | IC50 (DUSP3; [2]) | IC50 (HePTP) | IC50 (PTP-SL) | IC50 (DUSP3; DUSP3) | IC50 (TCPTP) | Tyrosine phosphorylation of immunoprecipitated Syk and PLCγ2 (human platelets; human platelets, CRP- or rhodocytin-activated) | Global tyrosine phosphorylation (pY) of ~70-kDa band (human platelets; total lysates of human platelets after stimulation with CRP or rhodocytin) | IC50 (STEP) | selectivity for DUSP3 over DUSP22 (DUSP22; DUSP3 over DUSP22) | IC50 (DUSP22; DUSP22) | IC50 (CD45) | IC50 (DUSP6) | IC50 (LYP) | IC50 (PTP1B) | Effect on aggregation of DUSP3-deficient platelets [1] | IC50 (LAR)
COc1ccc(-c2nnc(Nc3nc4c(OC)cccc4s3)o2)cc1 [MLS-0049585] | 2.68 µM | – | – | – | – | – | – | – | – | – | – | – | – | – | – | –
COc1cc(C(=S)N2CCCCC2)ccc1O [MLS-0103602] | 0.37 µM | – | – | – | – | – | – | – | – | – | – | – | – | – | – | –
COc1ccc(-c2nnc(Nc3nc4c(F)cccc4s3)o2)cc1 [MLS-0437605] | – | 38 µM | 13 µM | 3.7 µM | 55 µM | reduced | caused a decrease in pY | > 100 µM | 7 fold | 26 µM | > 100 µM | > 100 µM | 49 µM | > 100 µM | only minimally affected aggregation | > 100 µM
